Read-outs that look alike come from different tables or passages of the source.
Legend:
Assay type in all cases: cell-based
[1] = tested on: human platelets; assay: Platelet toxicity assay (MTS viability); conditions: Platelet; Table 4; human platelets; 48 h; read-out: Platelets 48 h IC50
Experimental: Platelet-rich plasma (PRP) was purchased from Life South Community Blood Centers (Gainesville, FL, USA). PRP was transferred into a 50 mL tube containing 5 mL of the acid citrate buffer (Cat. No. sc-214744, Santa Cruz Biotechnology). To prevent clotting, prostaglandin E1 (PGE1, Cat. No. sc-201223A, Santa Cruz Biotechnology, Dallas, TX, USA) and apyrase (Cat. No. A6237, Sigma-Aldrich, St. Louis, MO, USA) were added to final concentrations of […] and 0.2 U/mL, respectively. After gently mixing the solution, platelets were pelleted by centrifugation at 1200 g for 10 min without break. Pelleted platelets were gently washed without disturbing platelets using 2 mL of HEPES Tyrode's buffer (Cat. No. PY-921WB, Boston BioProducts, Ashland, MA, USA) containing […] PGE1 and 0.2 U/mL apyrase. After washing, pellets were gently suspended in 10 mL of HEPES Tyrode's buffer containing […] PGE1 and 0.2 U/mL apyrase. Then, the platelet number was counted using a HEMAVET 950FS hematology analyzer (Drew Scientific, Inc., Oxford, CT, USA). For viability assays, the platelet number was adjusted to 2×10^8/mL in HEPES Tyrode's buffer containing […] PGE1 and 0.2 U/mL apyrase. Each treatment was given in 2 mL of the platelet suspension in 15 mL polypropylene tubes. The tubes were placed on a rotating platform at room temperature, and the viability of platelets was measured after 48 h treatment by using the MTS reagent (Cat. No. G1111, Promega, Madison, WI, USA). The data were analyzed by the GraphPad Prism 7 software for the calculation of IC50 values.

[2] = tested on: RS4; 11; assay: Cell viability assay (MTS) in RS4; 11 cells; conditions: Homo sapiens
Experimental: (§1) Acute lymphoblastic leukemia cells (MOLT-4 and RS4; 11) were incubated with increasing concentrations of Bcl-xL degraders for 48 h. Cell viability was measured by tetrazolium-based MTS assay.

[3] = tested on: MOLT-4; assay: Cell viability assay (MTS) in MOLT-4 cells; conditions: Homo sapiens
Experimental: as §1

[4] = RS4-11, Table 2, 48 hr, MTS, read-out: Anti-Cancer Activity IC50 (48 hr) RS4, 11
[5] = MOLT-4, Table 2, 48 hr, MTS, read-out: Anti-Cancer Activity IC50 (48 hr) MOLT-4

| SMILES | IC50 [2, 4] | IC50 [3, 5] | other results |
| --- | --- | --- | --- |
| Cc1ncsc1-c1ccc([C@H](C)NC(=O)[C@@H]2C[C@@H](O)CN2C(=O)[C@@H](NC(=O)CN2CCN(CC(=O)N3CCN(C[C@]4(C)CCC(c5ccc(Cl)cc5)=C(CN5CCN(c6ccc(C(=O)NS(=O)(=O)c7ccc(N[C@H](CCN8C[C@H]9C[C@@H]8CO9)CSc8ccccc8)c(S(=O)(=O)C(F)(F)F)c7)cc6)CC5)C4)CC3)CC2)C(C)(C)C)cc1 [Compound 105] | – | – | IC50 [1]: 777 nM; IC50 ([2]; RS4-11, 48 h, read-out: Anti-Cancer Activity IC50 (48 hr) RS4, 11): < 20 nM; IC50 ([2]; RS4-11, 48 h, read-out: RS4 48 h IC50): 3 nM; IC50 ([3]; MOLT-4, 48 h, read-out: Anti-Cancer Activity IC50 (48 hr) MOLT-4): < 20 nM; IC50 ([3]; MOLT-4, 48 h, read-out: MOLT-4 48 h IC50): 4 nM |
| Cc1ncsc1-c1ccc([C@H](C)NC(=O)[C@@H]2C[C@@H](O)CN2C(=O)[C@@H](NC(=O)CCCNC(=O)c2ccc(N3CCN(CC4(C)CCC(c5ccc(Cl)cc5)=C(CN5CCN(c6ccc(C(=O)NS(=O)(=O)c7ccc(N[C@H](CCN8CCOCC8)CSc8ccccc8)c(S(=O)(=O)C(F)(F)F)c7)cc6)CC5)C4)CC3)nc2)C(C)(C)C)cc1 (some centres unmarked) [Compound 2] | 20 to 100 nM | 20 to 100 nM | – |
| Cc1ncsc1-c1ccc([C@H](C)NC(=O)[C@@H]2C[C@@H](O)CN2C(=O)[C@@H](NC(=O)CC2CCN(CC(=O)N3CCN(C[C@]4(C)CCC(c5ccc(Cl)cc5)=C(CN5CCN(c6ccc(C(=O)NS(=O)(=O)c7ccc(N[C@H](CCN8CCCOCC8)CSc8ccccc8)c(S(=O)(=O)C(F)(F)F)c7)cc6)CC5)C4)CC3)CC2)C(C)(C)C)cc1 [Compound 75] | 20 to 100 nM | 20 to 100 nM | – |
| Cc1ncsc1-c1ccc([C@H](C)NC(=O)[C@@H]2C[C@@H](O)CN2C(=O)[C@@H](NC(=O)CCCC(=O)N2CCN(CC3CCN(CC4(C)CCC(c5ccc(Cl)cc5)=C(CN5CCN(c6ccc(C(=O)NS(=O)(=O)c7ccc(N[C@H](CCN8CCOCC8)CSc8ccccc8)c(S(=O)(=O)C(F)(F)F)c7)cc6)CC5)C4)CC3)CC2)C(C)(C)C)cc1 (some centres unmarked) [Compound 18] | 20 to 100 nM | 20 to 100 nM | – |
| Cc1ncsc1-c1ccc([C@H](C)NC(=O)[C@@H]2C[C@@H](O)CN2C(=O)[C@@H](NC(=O)CCCCCCC(=O)N2CCN(CC3(C)CCC(c4ccc(Cl)cc4)=C(CN4CCN(c5ccc(C(=O)NS(=O)(=O)c6ccc(N[C@H](CCO)CSc7ccccc7)c([N+](=O)[O-])c6)cc5)CC4)C3)CC2)C(C)(C)C)cc1 (stereo partly drawn) [Compound 49, (2S,4R)-1-((2S)-2-(8-(4-((4′-chloro-6-((4-(4-(((4-(((R)-4-hydroxy-1-(phenylthio)butan-2-yl)amino)-3-nitrophenyl)sulfonyl)carbamoyl)phenyl)piperazin-1-yl)methyl)-4-methyl-2,3,4,5-tetrahydro-[1,1′-biphenyl]-4-yl)methyl)piperazin-1-yl)-8-oxooctanamido)-3,3-dimethylbutanoyl)-4-hydroxy-N—((S)-1-(4-(4-methylthiazol-5-yl)phenyl)ethyl)pyrrolidine-2-carboxamide] | 20 to 100 nM | 500 to 10000 nM | – |
| Cc1ncsc1-c1ccc([C@H](C)NC(=O)[C@@H]2C[C@@H](O)CN2C(=O)[C@@H](NC(=O)CCCCCCC(=O)N2CCN(C[C@]3(C)CCC(c4ccc(Cl)cc4)=C(CN4CCN(c5ccc(C(=O)NS(=O)(=O)c6ccc(N[C@H](CCN7CCCOCC7)CSc7ccccc7)c(S(=O)(=O)C(F)(F)F)c6)cc5)CC4)C3)C[C@H]2C)C(C)(C)C)cc1 [Compound 81] | < 20 nM | < 20 nM | – |
| Cc1ncsc1-c1ccc([C@H](C)NC(=O)[C@@H]2C[C@@H](O)CN2C(=O)[C@@H](NC(=O)CCCCC(=O)N2CCN(C3CCN(C[C@]4(C)CCC(c5ccc(Cl)cc5)=C(CN5CCN(c6ccc(C(=O)NS(=O)(=O)c7ccc(N[C@H](CCN8CCCOCC8)CSc8ccccc8)c(S(=O)(=O)C(F)(F)F)c7)cc6)CC5)C4)CC3)CC2)C(C)(C)C)cc1 [Compound 119] | – | – | IC50 ([2]; RS4-11, Table 2A, 48 hr, MTS, read-out: Anti-Cancer Activity IC50 (48 hr) RS4, 11): < 20 nM; IC50 ([3]; MOLT-4, Table 2A, 48 hr, MTS, read-out: Anti-Cancer Activity IC50 (48 hr) MOLT-4): < 20 nM |
| Cc1ncsc1-c1ccc([C@H](C)NC(=O)[C@@H]2C[C@@H](O)CN2C(=O)[C@@H](NC(=O)CCCCCCCC(=O)N2CCN(CCC3(C)CCC(c4ccc(Cl)cc4)=C(CN4CCN(c5ccc(C(=O)NS(=O)(=O)c6ccc(N[C@H](CCN7CCOCC7)CSc7ccccc7)c(S(=O)(=O)C(F)(F)F)c6)cc5)CC4)C3)CC2)C(C)(C)C)cc1 (stereo partly drawn) [Compound 29, (2S,4R)-1-((2S)-2-(9-(4-(2-(4′-chloro-4-methyl-6-((4-(4-(((4-(((R)-4-morpholino-1-(phenylthio)butan-2-yl)amino)-3-((trifluoromethyl)sulfonyl)phenyl)sulfonyl)carbamoyl)phenyl)piperazin-1-yl)methyl)-2,3,4,5-tetrahydro-[1,1′-biphenyl]-4-yl)ethyl)piperazin-1-yl)-9-oxononanamido)-3,3-dimethylbutanoyl)-4-hydroxy-N—((S)-1-(4-(4-methylthiazol-5-yl)phenyl)ethyl)pyrrolidine-2-carboxamide] | 20 to 100 nM | 100 to 500 nM | – |
| Cc1ncsc1-c1ccc([C@H](C)NC(=O)[C@@H]2C[C@@H](O)CN2C(=O)[C@@H](NC(=O)CCCNC(=O)c2ccc(N3CCN(CCN(C)CC4(C)CCC(c5ccc(Cl)cc5)=C(CN5CCN(c6ccc(C(=O)NS(=O)(=O)c7ccc(N[C@H](CCN8CCOCC8)CSc8ccccc8)c(S(=O)(=O)C(F)(F)F)c7)cc6)CC5)C4)CC3)cc2)C(C)(C)C)cc1 (some centres unmarked) [Compound 14] | 20 to 100 nM | 20 to 100 nM | – |
| Cc1ncsc1-c1ccc([C@H](C)NC(=O)[C@@H]2C[C@@H](O)CN2C(=O)[C@@H](NC(=O)CCCCCCC(=O)N2CCN(CC3(C)CCC(c4ccc(Cl)cc4)=C(CN4CCN(c5ccc(C(=O)NS(=O)(=O)c6ccc(N[C@H](CCN7CCC(CO)CC7)CSc7ccccc7)c([N+](=O)[O-])c6)cc5)CC4)C3)CC2)C(C)(C)C)cc1 (stereo partly drawn) [Compound 47, (2S,4R)-1-((2S)-2-(8-(4-((4′-chloro-6-((4-(4-(((4-(((R)-4-(4-(hydroxymethyl)piperidin-1-yl)-1-(phenylthio)butan-2-yl)amino)-3-nitrophenyl)sulfonyl)carbamoyl)phenyl)piperazin-1-yl)methyl)-4-methyl-2,3,4,5-tetrahydro-[1,1′-biphenyl]-4-yl)methyl)piperazin-1-yl)-8-oxooctanamido)-3,3-dimethylbutanoyl)-4-hydroxy-N—((S)-1-(4-(4-methylthiazol-5-yl)phenyl)ethyl)pyrrolidine-2-carboxamide] | 20 to 100 nM | 100 to 500 nM | – |
| Cc1ncsc1-c1ccc([C@H](C)NC(=O)[C@@H]2C[C@@H](O)CN2C(=O)[C@@H](NC(=O)CCCNC(=O)c2ccc(N3CCN(CC4(C)CCC(c5ccc(Cl)cc5)=C(CN5CCN(c6ccc(C(=O)NS(=O)(=O)c7ccc(N[C@H](CCN8CCOCC8)CSc8ccccc8)c(S(=O)(=O)C(F)(F)F)c7)cc6)CC5)C4)CC3)cn2)C(C)(C)C)cc1 (some centres unmarked) [Compound 4] | 20 to 100 nM | 20 to 100 nM | – |
| Cc1ncsc1-c1ccc([C@H](C)NC(=O)[C@@H]2C[C@@H](O)CN2C(=O)[C@@H](NC(=O)CCCCCCC(=O)N2CCN(CC3(C)CCC(c4ccc(Cl)cc4)=C(CN4CCN(c5ccc(C(=O)NS(=O)(=O)c6ccc(N[C@H](CCN(C)C)CSc7ccccc7)c([N+](=O)[O-])c6)cc5)CC4)C3)CC2)C(C)(C)C)cc1 (stereo partly drawn) [Compound 34, (2S,4R)-1-((2S)-2-(8-(4-((4′-chloro-6-((4-(4-(((4-(((R)-4-(dimethylamino)-1-(phenylthio)butan-2-yl)amino)-3-nitrophenyl)sulfonyl)carbamoyl)phenyl)piperazin-1-yl)methyl)-4-methyl-2,3,4,5-tetrahydro-[1,1′-biphenyl]-4-yl)methyl)piperazin-1-yl)-8-oxooctanamido)-3,3-dimethylbutanoyl)-4-hydroxy-N—((S)-1-(4-(4-methylthiazol-5-yl)phenyl)ethyl)pyrrolidine-2-carboxamide] | < 20 nM | < 20 nM | – |
| Cc1ncsc1-c1ccc([C@H](C)NC(=O)[C@@H]2C[C@@H](O)CN2C(=O)[C@@H](NC(=O)CN2CCN(CC(=O)N3CCN(CC4(C)CCC(c5ccc(Cl)cc5)=C(CN5CCN(c6ccc(C(=O)NS(=O)(=O)c7ccc(N[C@H](CCN8CCOCC8)CSc8ccccc8)c(S(=O)(=O)C(F)(F)F)c7)cc6)CC5)C4)CC3)CC2)C(C)(C)C)cc1 (some centres unmarked) [Compound 25] | < 20 nM | < 20 nM | – |

Source: US20250154141A1 (University of Florida Research Foundation, Incorporated, priority 2021, published 2025)
